The text below walks through data of patent US9909219B2, “Slurry biocide” (ECOLAB USA INC., priority 2014, dated 2018).

Test [1] has as its system Total Aerobic Bacteria. Kind of test: Biocide treatment of pipeline makeup water (river water): total aerobic bacteria count. It is filed as cell-based. The source says: (§1) Two water samples collected directly of makeup water of a pipeline sourced form river water, were submitted to biocide treatment. One sample was highly contaminated with microorganisms (1700 CFU/mL) while the other was less contaminated (120 CFU/mL). […] There is a dramatic reduction in required dosage using oxidizing biocide ([…]) (Tests 3, 4 and 7).

Test [2] relates to Sulfate Reducing Bacteria. The experiment in a line: Biocide treatment of pipeline makeup water (river water): sulfate reducing bacteria count. In kind it is cell-based.
Text: as §1

Regarding `[O][Cl+][O-]` [ClO2, chlorine dioxide], the “Final Count Total Aerobic Bacteria” value in test [1] (Test 3, initial count 1700 CFU/mL, dosage 5 ppm) is given as 30 CFU/mL; in test [1] (Test 4, initial count 120 CFU/mL, dosage 4 ppm), below 27 CFU/mL; in test [1] (Test 7, initial count 120 CFU/mL, dosage 1.5 ppm) it was below 27 CFU/mL. Further, the “Final Count Sulfate Reducing Bacteria” value was below 10 CFU/mL in test [2] (Test 3, initial count 30 CFU/mL, dosage 5 ppm); below 10 CFU/mL in test [2] (Test 4, initial count <10 CFU/mL, dosage 4 ppm); below 10 CFU/mL in test [2] (Test 7, initial count <10 CFU/mL, dosage 1.5 ppm).
With `O=CCCCC=O` [A, Glutaraldehyde], the “Final Count Total Aerobic Bacteria” value is reported as 330 CFU/mL in test [1] (Test 1, initial count 1700 CFU/mL, dosage 500 ppm) and below 27 CFU/mL in test [1] (Test 5, initial count 120 CFU/mL, dosage 500 ppm). The “Final Count Sulfate Reducing Bacteria” value is on record as 10 CFU/mL in test [2] (Test 1, initial count 30 CFU/mL, dosage 500 ppm) and below 10 CFU/mL in test [2] (Test 5, initial count <10 CFU/mL, dosage 500 ppm).
